# Test results reported in the NIST ThermoML archive (doi:10.1021/je4004417).
# “And” between values parts separate entries of the source, which are not always exact repeats. Equal values may be shown once. ± gives the expanded uncertainty stated by the source.
# Experiments:
# [1] = Liquid, Closed cell (Static) method
# [2] = refractive index (Na D-line) (dimensionless); details: 293.15 K; 101.33 kPa; Liquid; Standard Abbe refractometry
SMILES,vapor or sublimation pressure ([1]; 343.15 K),vapor or sublimation pressure ([1]; 363.15 K),vapor or sublimation pressure ([1]; 393.15 K),refractive index [2]
CCCCCC [hexane],105.47 ± 2.2 kPa,190.95 ± 2.3 kPa,400.27 ± 2.5 kPa,1.3748 ± 0.0007
CCCCCCC [heptane],40.4 ± 0.31 kPa,78.59 ± 0.43 kPa,183.7 ± 2.2 kPa,1.3877 ± 0.0007
O=CN1CCOCC1 [N-formylmorpholine],0.16 ± 0.21 kPa and 0.15 ± 0.21 kPa,0.49 ± 0.21 kPa,2.18 ± 0.21 kPa,1.4844 ± 0.0007
